What follows are compounds tested against T1, ΔF508-CFTR (Homo sapiens, UniProt P13569, DEL508-508) (assay: Membrane potential optical assay (FRET voltage-sensor dyes, VIPR), identification of potentiator compounds). Conditions: Table 3; assay not given.
T1 construct: expressed in transfected cells
Format: cell-based
Excerpt: The optical membrane potential assay utilized voltage-sensitive FRET sensors described by Gonzalez and Tsien (See Gonzalez, J. E. and R. Y. Tsien (1995) “Voltage sensing by fluorescence resonance energy transfer in single cells” Biophys J 69(4): 1272-80, and Gonzalez, J. E. and R. Y. Tsien (1997) “Improved indicators of cell membrane potential that use fluorescence resonance energy transfer” Chem Biol 4(4): 269-77) in combination with instrumentation for measuring fluorescence changes such as the Voltage/Ion Probe Reader (VIPR) (See […]. Oades, et al. (1999) “Cell-based assays and instrumentation for screening ion-channel targets” Drug Discov Today 4(9): 431-439). These voltage sensitive assays are based on the change in fluorescence resonant energy transfer (FRET) between the membrane-soluble, voltage-sensitive dye, DiSBAC2(3), and a fluorescent phospholipid, CC2-DMPE, which is attached to the outer leaflet of the plasma membrane and acts as a FRET donor. Changes in membrane potential (Vm) cause the negatively charged DiSBAC2(3) to redistribute across the plasma membrane and the amount of energy transfer from CC2-DMPE changes accordingly. The changes in fluorescence emission were monitored using VIPRTM II, which is an integrated liquid handler and fluorescent detector designed to conduct cell-based screens in 96- or 384-well microtiter plates. To identify potentiators of ΔF508-CFTR, a double-addition HTS assay format was developed. During the first addition, a Cl^--free medium with or without test compound was added to each well. […] (in mM) NaCl 160, KCl 4.5, CaCl2 2, MgCl2 1, HEPES 10, pH 7.4 with NaOH. • Chloride-free bath solution: Chloride salts in Bath Solution #1 are substituted with gluconate salts. • CC2-DMPE: Prepared as a 10 mM stock solution in DMSO and stored at -20° C. • DiSBAC2(3): Prepared as a 10 mM stock in DMSO and stored at -20° C. NIH3T3 mouse fibroblasts stably expressing ΔF508-CFTR are used for optical measurements of membrane potential. […] For all optical assays, the cells were seeded at 30,000/well in 384-well matrigel-coated plates and cultured for 2 hrs at 37° C. before culturing at 27° C. for 24 hrs. for the potentiator assay.

T1 sequence (P13569 with tags, fused parts or gaps DEL508-508): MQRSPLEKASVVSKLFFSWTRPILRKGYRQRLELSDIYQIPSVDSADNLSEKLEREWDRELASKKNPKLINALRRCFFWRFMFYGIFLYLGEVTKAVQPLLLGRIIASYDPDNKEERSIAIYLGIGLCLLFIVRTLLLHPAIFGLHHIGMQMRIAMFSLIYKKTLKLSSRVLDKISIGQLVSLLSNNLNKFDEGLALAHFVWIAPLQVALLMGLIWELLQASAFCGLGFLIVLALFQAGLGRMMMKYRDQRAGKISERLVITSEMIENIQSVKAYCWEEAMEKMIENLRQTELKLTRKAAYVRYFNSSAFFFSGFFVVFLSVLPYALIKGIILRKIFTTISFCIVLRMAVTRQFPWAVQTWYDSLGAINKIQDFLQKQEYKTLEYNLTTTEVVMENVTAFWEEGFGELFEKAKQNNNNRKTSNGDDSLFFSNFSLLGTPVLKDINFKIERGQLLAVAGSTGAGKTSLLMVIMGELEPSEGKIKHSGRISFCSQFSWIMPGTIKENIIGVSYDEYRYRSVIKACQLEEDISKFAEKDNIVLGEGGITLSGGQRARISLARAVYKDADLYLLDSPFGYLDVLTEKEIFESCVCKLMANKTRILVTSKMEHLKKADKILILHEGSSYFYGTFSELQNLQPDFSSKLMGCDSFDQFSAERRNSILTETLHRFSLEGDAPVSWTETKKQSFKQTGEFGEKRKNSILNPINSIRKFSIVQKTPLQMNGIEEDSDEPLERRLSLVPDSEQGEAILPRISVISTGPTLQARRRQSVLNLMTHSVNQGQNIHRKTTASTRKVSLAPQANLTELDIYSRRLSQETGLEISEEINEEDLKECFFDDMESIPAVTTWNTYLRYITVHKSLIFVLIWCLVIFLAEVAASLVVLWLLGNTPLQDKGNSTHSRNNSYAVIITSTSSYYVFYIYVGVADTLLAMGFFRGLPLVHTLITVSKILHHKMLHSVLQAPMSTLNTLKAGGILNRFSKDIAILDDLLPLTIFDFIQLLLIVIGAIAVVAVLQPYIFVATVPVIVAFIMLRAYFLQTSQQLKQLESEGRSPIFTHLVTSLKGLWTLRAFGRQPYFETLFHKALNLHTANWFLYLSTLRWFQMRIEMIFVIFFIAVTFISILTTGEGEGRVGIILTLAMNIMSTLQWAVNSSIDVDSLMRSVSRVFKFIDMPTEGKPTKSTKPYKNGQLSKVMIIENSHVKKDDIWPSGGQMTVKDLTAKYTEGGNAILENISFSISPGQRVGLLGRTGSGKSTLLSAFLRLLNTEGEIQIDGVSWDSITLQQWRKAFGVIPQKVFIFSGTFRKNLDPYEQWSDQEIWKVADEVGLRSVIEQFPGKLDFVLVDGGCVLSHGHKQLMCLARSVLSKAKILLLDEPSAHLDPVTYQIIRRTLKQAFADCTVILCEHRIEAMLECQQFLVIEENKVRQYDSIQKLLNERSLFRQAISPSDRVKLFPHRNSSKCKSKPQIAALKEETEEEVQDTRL

Compound	EC50
CC(=O)Nc1cccc(-c2ccccc2NC(=O)c2c[nH]c3ccccc3c2=O)c1 [Compound 25, N-[2-(3-acetylaminophenyl)phenyl]-4-oxo-1H-quinoline-3-carboxamide]	10 to 25 µM

Same assay, conditions: Table 3; assay not given; read-out: % Activity (% Efficacy, relative efficacy)

Compound	Emax
COc1ccc(Cl)cc1-c1cc2cc[nH]c2cc1NC(=O)c1c[nH]c2ccccc2c1=O [Compound 1, N-[5-(5-chloro-2-methoxy-phenyl)-1H-indol-6-yl]-4-oxo-1H-quinoline-3-carboxamide]	25 to 100%
COc1cc(NC(=O)c2c[nH]c3ccccc3c2=O)ccc1C(C)(C)C [Compound 2, N-(3-methoxy-4-tert-butyl-phenyl)-4-oxo-1H-quinoline-3-carboxamide]	25 to 100%
COc1ccccc1Oc1ccc(C(F)(F)F)cc1NC(=O)c1c[nH]c2ccccc2c1=O [Compound 3, N-[2-(2-methoxyphenoxy)-5-(trifluoromethyl)phenyl]-4-oxo-1H-quinoline-3-carboxamide]	25 to 100%
O=C(Nc1ccccc1N1CCOCC1)c1c[nH]c2ccccc2c1=O [Compound 4, N-(2-morpholinophenyl)-4-oxo-1H-quinoline-3-carboxamide]	25 to 100%
CC(C)(CO)c1ccc(NC(=O)c2c[nH]c3ccccc3c2=O)cc1 [Compound 5, N-[4-(2-hydroxy-1,1-dimethyl-ethyl)phenyl]-4-oxo-1H-quinoline-3-carboxamide]	25 to 100%
CC(C)(C)c1ccc(NC(=O)c2c[nH]c3ccccc3c2=O)cc1CO [Compound 6, N-[3-(hydroxymethyl)-4-tert-butyl-phenyl]-4-oxo-1H-quinoline-3-carboxamide]	> 100%
CCOc1cc(NC(=O)c2c[nH]c3ccccc3c2=O)c(OCC)cc1NC(=O)c1ccccc1 [Compound 7, N-(4-benzoylamino-2,5-diethoxy-phenyl)-4-oxo-1H-quinoline-3-carboxamide]	< 25%
CCc1ccc(NC(=O)c2c[nH]c3ccccc3c2=O)cc1N [Compound 8, N-(3-amino-4-ethyl-phenyl)-4-oxo-1H-quinoline-3-carboxamide]	25 to 100%
NS(=O)(=O)c1cccc(NC(=O)c2c[nH]c3ccccc3c2=O)c1 [Compound 9, 4-oxo-N-(3-sulfamoylphenyl)-1H-quinoline-3-carboxamide]	< 25%
O=C(Nc1ccc2c(c1)NCCCC2)c1c[nH]c2ccccc2c1=O [Compound 10, 1,4-dihydro-N-(2,3,4,5-tetrahydro-1H-benzo[b]azepin-8-yl)-4-oxoquinoline-3-carboxamide]	25 to 100%
O=C(Nc1ccccc1-c1ccccc1C(F)(F)F)c1c[nH]c2ccccc2c1=O [Compound 11, 4-oxo-N-[2-[2-(trifluoromethyl)phenyl]phenyl]-1H-quinoline-3-carboxamide]	25 to 100%
CN(C)c1ccc(-c2ccccc2NC(=O)c2c[nH]c3ccccc3c2=O)cc1 [Compound 12, N-[2-(4-dimethylaminophenyl)phenyl]-4-oxo-1H-quinoline-3-carboxamide]	25 to 100%
CC(C)(C)c1ccc(NC(=O)c2c[nH]c3ccccc3c2=O)cc1C#N [Compound 13, N-(3-cyano-4-tert-butyl-phenyl)-4-oxo-1H-quinoline-3-carboxamide]	25 to 100%
COC(=O)Nc1cc(NC(=O)c2c[nH]c3ccccc3c2=O)ccc1C(C)(C)C [Compound 14, [5-[(4-oxo-1H-quinolin-3-yl)carbonylamino]-2-tert-butyl-phenyl]aminoformic acid methyl ester]	25 to 100%
COc1ncccc1NC(=O)c1c[nH]c2ccccc2c1=O [Compound 15, N-(2-methoxy-3-pyridyl)-4-oxo-1H-quinoline-3-carboxamide]	25 to 100%
CCCc1ccccc1NC(=O)c1c[nH]c2ccccc2c1=O [Compound 16, 4-oxo-N-(2-propylphenyl)-1H-quinoline-3-carboxamide]	25 to 100%
CCCOc1ccc(N)cc1NC(=O)c1c[nH]c2ccccc2c1=O [Compound 17, N-(5-Amino-2-propoxy-phenyl)-4-oxo-1H-quinoline-3-carboxamide]	25 to 100%
O=C(Nc1cccc2c1Cc1ccccc1-2)c1c[nH]c2ccccc2c1=O [Compound 18, N-(9H-fluoren-1-yl)-4-oxo-1H-quinoline-3-carboxamide]	25 to 100%
O=C(Nc1ccc2ccccc2n1)c1c[nH]c2ccccc2c1=O [Compound 19, 4-oxo-N-(2-quinolyl)-1H-quinoline-3-carboxamide]	< 25%
Cc1ccccc1Oc1ccccc1NC(=O)c1c[nH]c2ccccc2c1=O [Compound 20, N-[2-(2-methylphenoxy)phenyl]-4-oxo-1H-quinoline-3-carboxamide]	25 to 100%

Compound	Emax
O=C(Nc1ccc(S(=O)(=O)Nc2ccccn2)cc1)c1c[nH]c2ccccc2c1=O [Compound 21, 4-oxo-N-[4-(2-pyridylsulfamoyl)phenyl]-1H-quinoline-3-carboxamide]	< 25%
O=C(Nc1ccc2c(c1)NCC21CC1)c1c[nH]c2ccccc2c1=O [Compound 22, 4-Oxo-1,4-dihydro-quinoline-3-carboxylic acid N-(1′,2′-dihydrospiro[cyclopropane-1,3′-[3H]indol]-6′-yl)-amide]	25 to 100%
CCOc1ccccc1-c1cc(C(C)(C)C)c(O)cc1NC(=O)c1c[nH]c2ccccc2c1=O [Compound 23, N-[2-(2-ethoxyphenyl)-5-hydroxy-4-tert-butyl-phenyl]-4-oxo-1H-quinoline-3-carboxamide]	25 to 100%
O=C(Nc1cccc(S(=O)(=O)N2CCCC2)c1)c1c[nH]c2ccccc2c1=O [Compound 24, 4-oxo-N-(3-pyrrolidin-1-ylsulfonylphenyl)-1H-quinoline-3-carboxamide]	< 25%
CC(=O)Nc1cccc(-c2ccccc2NC(=O)c2c[nH]c3ccccc3c2=O)c1 [Compound 25, N-[2-(3-acetylaminophenyl)phenyl]-4-oxo-1H-quinoline-3-carboxamide]	25 to 100%
O=C(Nc1ccccc1N1CCCCC1)c1c[nH]c2ccccc2c1=O [Compound 26, 4-oxo-N-[2-(1-piperidyl)phenyl]-1H-quinoline-3-carboxamide]	25 to 100%
COCCOC(=O)NCC(C)(C)c1ccc(NC(=O)c2c[nH]c3ccccc3c2=O)cc1 [Compound 28, [2-methyl-2-[4-[(4-oxo-1H-quinolin-3-yl)carbonylamino]phenyl]-propyl]aminoformic acid 2-methoxyethyl ester]	25 to 100%
CC(C)n1cc(C(=O)Nc2ccccc2)c(=O)c2ccccc21 [Compound 29, 1-isopropyl-4-oxo-N-phenyl-1H-quinoline-3-carboxamide]	25 to 100%
COC(=O)Nc1cc(NC(=O)c2c[nH]c3ccccc3c2=O)ccc1C(C)C [Compound 30, [2-isopropyl-5-[(4-oxo-1H-quinolin-3-yl)carbonylamino]phenyl]aminoformic acid methyl ester]	25 to 100%
Cc1ccc(NC(=O)c2c[nH]c3ccccc3c2=O)cc1 [Compound 31, 4-oxo-N-(p-tolyl)-1H-quinoline-3-carboxamide]	25 to 100%
O=C(Nc1cc2[nH]ccc2cc1Cl)c1c[nH]c2ccccc2c1=O [Compound 32, N-(5-chloro-1H-indol-6-yl)-4-oxo-1H-quinoline-3-carboxamide]	25 to 100%
O=C(Nc1ccc2cc[nH]c2c1)c1c[nH]c2ccccc2c1=O [Compound 33, N-(1H-indol-6-yl)-4-oxo-1H-quinoline-3-carboxamide]	25 to 100%
CCC(CC)(CC)c1cc(F)c(NC(=O)c2cnc3ccccc3c2O)cc1O [Compound 34, N-[4-(1,1-diethylpropyl)-2-fluoro-5-hydroxy-phenyl]-4-hydroxy-quinoline-3-carboxamide]	25 to 100%
CC1(C)CCCNc2cc(NC(=O)c3c[nH]c4ccccc4c3=O)ccc21 [Compound 35, 1,4-dihydro-N-(2,3,4,5-tetrahydro-5,5-dimethyl-1H-benzo[b]azepin-8-yl)-4-oxoquinoline-3-carboxamide]	25 to 100%
CC(C)c1ccccc1NC(=O)c1c[nH]c2ccccc2c1=O [Compound 36, N-(2-isopropylphenyl)-4-oxo-1H-quinoline-3-carboxamide]	25 to 100%
O=C(Nc1cccc2cc[nH]c12)c1c[nH]c2ccccc2c1=O [Compound 37, N-(1H-indol-7-yl)-4-oxo-1H-quinoline-3-carboxamide]	25 to 100%
O=C(Nc1ccccc1-c1cc2ccccc2[nH]1)c1c[nH]c2ccccc2c1=O [Compound 38, N-[2-(1H-indol-2-yl)phenyl]-4-oxo-1H-quinoline-3-carboxamide]	25 to 100%
COc1nc2ccccc2c(OC)c1C(=O)Nc1cc(NC(=O)OC(C)(C)C)ccc1C(C)(C)C [Compound 39, [3-[(2,4-dimethoxy-3-quinolyl)carbonylamino]-4-tert-butyl-phenyl]aminoformic acid tert-butyl ester]	25 to 100%
O=C(Nc1ccccc1CCO)c1c[nH]c2ccccc2c1=O [Compound 40, N-[2-(2-hydroxyethyl)phenyl]-4-oxo-1H-quinoline-3-carboxamide]	< 25%

From US8802700B2 (Vertex Pharmaceuticals Incorporated, priority 2010, dated 2014)
